Assay results from patent US6518300B2, “Treatment of lipid metabolic disorders using 5-(1,2-dithiolan-3-yl) valeric acid (α-lipoic acid) or its physiologically compatible salts” (BiRD Berolina innovative Research and Development GmbH, priority 1998, dated 2003).

Legend:
[1] = same observational study; patients assigned to three groups by disease pattern (DGFF guidelines); format: in vivo
Procedure: A somewhat smaller group was treated with α-lipoic acid, but not with captopril (n=280). The treatment time extended over approximately 3 months. α-Lipoic acid was predominantly administered orally or parenterally in a dose of 600 mg per day. Captopril was ingested orally in daily doses of 12.5 to 50 mg.
In another consideration, the patients were assigned to three groups on the basis of their disease pattern, independent of the form of therapy, according to the “Guidelines of the German Association for Combatting Disorders of Lipid Metabolism and Their Sequelae DGFF (Lipid-Liga) e.V.” (Supplement to the German Ärzteblatte 1996; 4, 1-8):
1) isolated LDL-hypercholesterolemia (LDL>4.14, triglycerides≦2.2 mmoles/l);
2) combined LDL-hypercholesterolemia (LDL>4.14, triglycerides>2.2 mmoles/l);
3) isolated hypertriglyceridemia (LDL≦4.14, triglycerides>2.2 mmoles/l).
Standard values from the literature were set as limiting values (Wilson et al., Harrison's Principles of Internal Medicine, 12Edition, McGraw-Hill, 1991).
Sixty-two patients were placed in the first group, 112 patients in the second group, and 83 patients in the third group.

[2] = doses of approximately 600 mg/day; treatment of polyneuropathy; cited from earlier work
[3] = open observational study of blood lipid values under α-lipoic acid therapy; total population and individual-parameter analysis; format: in vivo, patients
Procedure: A somewhat smaller group was treated with α-lipoic acid, but not with captopril (n=280). The treatment time extended over approximately 3 months. α-Lipoic acid was predominantly administered orally or parenterally in a dose of 600 mg per day. Captopril was ingested orally in daily doses of 12.5 to 50 mg. At the beginning of therapy and at the end of observation after three months, the blood lipid values were optionally recorded. […] Because of the different basic treatment, the patients with combined therapy of α-lipoic acid and captopril and those with a single therapy with α-lipoic acid were placed in subgroups for this purpose: the 160 remaining patients (those with single therapy with captopril, n=154; those without treatment data n=6) were not included in the further analysis, since in this remaining group, only a small, incomparable number of patients had initial values corresponding to the range named under point 2 (triglycerides n=0, total cholesterol n=63, HDL cholesterol n=0, LDL cholesterol n=32). In a first analysis, the parameters were represented independently of one another, i.e., all patients, who had the initial values given below for the parameter, were included for each parameter: triglycerides >6 mmoles/l; total cholesterol >6 mmoles/l HDL cholesterol 0.7-0.8 mmole/l; LDL cholesterol >2.5 mmoles/l. The limits of the range were selected based on the studies reported in the literature (H. Thuro, Effective decrease in cholesterol and triglycerides with atorvastatin, Supplement in Der Internist 1996; 37 (8), 1-8).

[4] = group 2 combined LDL-hypercholesterolemia
[5] = group 2 combined LDL-hypercholesterolemia, 91 paired values, p<0.0001
[6] = total population, start vs end of observation after three months, predominantly 600 mg per day

SMILES: O=C(O)CCCCC1CCSS1 (stereo not drawn) [α-lipoic acid, 5-(1,2-dithiolan-3-yl) valeric acid]
- HDL cholesterol, percent increase ([1]; group 1, 34 paired values, not significant): approximately 10%
- total cholesterol, percent decrease ([1]; group 1 isolated LDL-hypercholesterolemia): 8%
- total cholesterol, end value ([1]; group 1 isolated LDL-hypercholesterolemia, initial 7.01 (n=62), end n=40): 6.49 mmol/L
- LDL cholesterol, mean percent decrease ([1]; group 1 isolated LDL-hypercholesterolemia, p<0.0001): 16%
- HDL cholesterol, end value ([1]; group 1 isolated LDL-hypercholesterolemia, prior 1.29 (n=61), end n=34): 1.34 mmol/L
- triglycerides, average end value ([1]; group 1 isolated LDL-hypercholesterolemia, prior 1.69, n=38, increase not significant): 1.70 mmol/L
- LDL cholesterol, end value ([1]; group 1 isolated LDL-hypercholesterolemia, prior 5.02, n=33): 4.33 mmol/L
- HDL cholesterol, percent increase [1, 4]: 4.5%
- total cholesterol, percent decrease [1, 4]: ~10%
- triglycerides, absolute difference (decrease) [1, 5]: 0.83 mmol/L
- triglycerides, percent decrease [1, 5]: 20%
- LDL cholesterol, mean percent decrease ([1]; group 2 combined LDL-hypercholesterolemia, p<0.0001): 14%
- HDL cholesterol, end value ([1]; group 2 combined LDL-hypercholesterolemia, prior 1.15 (n=108), end n=77): 1.15 mmol/L
- LDL cholesterol, end value ([1]; group 2 combined LDL-hypercholesterolemia, prior 5.42, n=74): 4.75 mmol/L
- total cholesterol, end value ([1]; group 2 combined LDL-hypercholesterolemia, prior 7.71 (n=112), end n=94): 6.86 mmol/L
- triglycerides, end value ([1]; group 2 combined LDL-hypercholesterolemia, prior value 3.75, 91 paired values): 2.74 mmol/L
- HDL cholesterol, percent increase ([1]; group 3, 59 paired values, p<0.01): approximately 15%
- total cholesterol, percent decrease ([1]; group 3 isolated hypertriglyceridemia): about 5%
- LDL cholesterol, end value ([1]; group 3 isolated hypertriglyceridemia, initial 3.29, n=59, change not significant): 3.23 mmol/L
- total cholesterol, end value ([1]; group 3 isolated hypertriglyceridemia, initial 6.31 (n=83), end n=67): 5.88 mmol/L
- triglycerides, percent reduction ([1]; group 3 isolated hypertriglyceridemia, n=67, p<0.0001): about 16%
- HDL cholesterol, end value ([1]; group 3 isolated hypertriglyceridemia, prior 1.19 (n=83), end n=59): 1.31 mmol/L
- triglycerides, end value ([1]; group 3 isolated hypertriglyceridemia, prior 3.33 (n=83), n=67, p<0.0001): 2.69 mmol/L
- decrease in ratio of LDL to HDL cholesterol ([1]; isolated LDL hypercholesterolemia (group 1)): 16.97%
- ratio of LDL to HDL cholesterol, end value ([1]; isolated LDL hypercholesterolemia (group 1), prior value 3.89): 3.23
- decrease in ratio of LDL to HDL cholesterol ([1]; mixed hyperlipidemia (group 2)): 12.31%
- ratio of LDL to HDL cholesterol, end value ([1]; mixed hyperlipidemia (group 2), prior value 4.71): 4.13
- improvement in ratio of LDL to HDL cholesterol ([1]; patients without LDL cholesterinolemia (group 3), initial value in normal range): 10.51%
- compatibility of oral and parenteral therapy [2]: very good
- HDL cholesterol, mean end value ([3]; patients with initial HDL 0.7-0.8 mmole/l, all patients, prior mean 0.76 (n=33), end n=13, increase not significant): 0.97 mmol/L
- percent increase of HDL cholesterol, on average ([3]; patients with initial HDL 0.7-0.8 mmole/l, not significant): over 20%
- LDL cholesterol, mean end value ([3]; patients with initial LDL >2.5 mmoles/l, all patients, prior mean 4.41 (n=336), end n=208, p<0.001): 4.03 mmol/L
- percent decrease of LDL cholesterol, on average ([3]; patients with initial LDL >2.5 mmoles/l, in all groups): approximately 10%
- mean percent decrease of total cholesterol ([3]; patients with initial total cholesterol >6 mmoles/l, in all groups): approximately 10%
- total cholesterol, mean end value ([3]; patients with initial total cholesterol >6 mmoles/l, prior mean 7.32 (n=853), 570 paired values, p<0.0001): 6.57 mmol/L
- triglycerides, mean end value ([3]; patients with initial triglycerides >6 mmoles/l, all patients, prior mean 8.96 (n=33), end n=26, p<0.05, approx. 3 months): 7.16 mmol/L
- mean percentual decrease of triglycerides ([3]; patients with initial triglycerides >6 mmoles/l, in all groups (total, combined with captopril, single therapy)): greater than 20%
- observed changes of all lipid parameters, single therapy compared with combined therapy with captopril ([3]; single therapy of α-lipoic acid vs combined therapy with captopril): more strongly pronounced
- change of HDL cholesterol [3, 6]: slight increase
- change of LDL cholesterol [3, 6]: statistically striking decrease
- change of total cholesterol [3, 6]: statistically striking decrease
- change of triglycerides ([3]; total population, start vs end of observation after three months, predominantly 600 mg per day oral or parenteral): statistically striking decrease
